According to patent publication US7456210B2, “Benzyloxy derivatives” (Hoffmann-La Roche Inc., priority 2004, dated 2008):

molecular target: T1, human MAO-B (Homo sapiens, UniProt P27338); test: MAO-B enzymatic activity, spectrophotometric Amplex Red assay on membranes of transfected EBNA cells; type: biochemical; details: membranes of EBNA cells transfected with human MAO-B; substrate tyramine; 30 min preincubation at 37° C., pH 7.4
T1 construct: expressed in transfected cells; host or cells: EBNA cells (transient transfection); cell membranes used
T1 sequence (P27338 1-520): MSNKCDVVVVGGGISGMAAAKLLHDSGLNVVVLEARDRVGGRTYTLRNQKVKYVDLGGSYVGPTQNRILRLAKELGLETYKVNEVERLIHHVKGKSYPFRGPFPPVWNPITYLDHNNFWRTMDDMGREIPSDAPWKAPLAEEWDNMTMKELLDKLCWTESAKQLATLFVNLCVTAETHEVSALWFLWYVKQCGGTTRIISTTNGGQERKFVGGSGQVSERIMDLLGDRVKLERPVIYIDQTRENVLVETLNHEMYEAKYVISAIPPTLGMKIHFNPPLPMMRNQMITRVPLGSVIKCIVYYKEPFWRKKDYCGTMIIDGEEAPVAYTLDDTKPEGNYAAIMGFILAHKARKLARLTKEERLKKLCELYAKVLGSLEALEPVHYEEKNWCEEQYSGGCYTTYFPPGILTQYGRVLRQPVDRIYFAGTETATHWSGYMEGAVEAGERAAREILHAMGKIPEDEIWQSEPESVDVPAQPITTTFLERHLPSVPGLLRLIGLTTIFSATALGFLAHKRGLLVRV
Description: The cDNA's encoding human MAO-A and MAO-B were transiently transfected into EBNA cells using the procedure described by Schlaeger and Christensen [Cytotechnology 15:1-13 (1998)]. After transfection, cells were homogenised by means of a Polytron homogenizer in 20 mM Tris HCl buffer, pH 8.0, containing 0.5 mM EGTA and 0.5 mM phenylmethanesulfonyl fluoride. Cell membranes were obtained by centrifugation at 45,000×g and, after two rinsing step with 20 mM Tris HCl buffer, pH 8.0, containing 0.5 mM EGTA, membranes were eventually re-suspended in the above buffer and aliquots stored at −80° C. until use.
MAO-A and MAO-B enzymatic activity was assayed in 96-well-plates using a spectro-photometric assay adapted from the method described by Zhou and Panchuk-Voloshina [Analytical Biochemistry 253:169-174 (1997)]. Briefly, membrane aliquots were incubated in 0.1 M potassium phosphate buffer, pH 7.4, for 30 min at 37° C. with or without various concentrations of the compounds. After this period, the enzymatic reaction was started by the addition of the MAO substrate tyramine together with 1 U/ml horse-radish peroxidase (Roche Biochemicals) and 80 μM N-acetyl-3,7,-dihydroxyphenoxazine (Amplex Red, Molecular Probes). The samples were further incubated for 30 min at 37° C. in a final volume of 200 μl and absorbance was then determined at a wavelength of 570 nm using a SpectraMax plate reader (Molecular Devices). Background (non-specific) absorbance was determined in the presence of 10 μM clorgyline for MAO-A or 10 μM L-deprenyl for MAO-B.
IC50 values were determined from inhibition curves obtained using nine inhibitor concentrations in duplicate, by fitting data to a four parameter logistic equation using a computer program.

| SMILES | IC50 |
| --- | --- |
| N=C(NO)[C@@H]1CC(=O)N(c2ccc(OCc3cccc(F)c3)cc2)C1 [Example 3, (R)-1-[4-(3-Fluoro-benzyloxy)-phenyl]-N-hydroxy-5-oxo-pyrrolidine-3-carboxamidine] | 0.018 µM |
| Cc1nc([C@@H]2CC(=O)N(c3ccc(OCc4cccc(F)c4)cc3)C2)no1 [Example 4, (R)-1-[4-(3-Fluoro-benzyloxy)-phenyl]-4-(5-methyl-[1,2,4]oxadiazol-3-yl)-pyrrolidin-2-one] | 0.016 µM |
| CCOC(=O)c1nc([C@@H]2CC(=O)N(c3ccc(OCc4cccc(F)c4)cc3)C2)no1 [Example 5, 3-{(R)-1-[4-(3-Fluoro-benzyloxy)-phenyl]-5-oxo-pyrrolidin-3-yl}-[1,2,4]oxadiazole-5-carboxylic acid ethyl ester] | 0.043 µM |
| NC(=O)c1nc([C@@H]2CC(=O)N(c3ccc(OCc4cccc(F)c4)cc3)C2)no1 [Example 6, 3-{(R)-1-[4-(3-Fluoro-benzyloxy)-phenyl]-5-oxo-pyrrolidin-3-yl}-[1,2,4]oxadiazole-5-carboxylic acid amide] | 0.429 µM |
| Cc1nc([C@@H]2CC(=O)N(c3ccc(OCc4cccc(F)c4)cc3)C2)cs1 [Example 8, (R)-1-[4-(3-Fluoro-benzyloxy)-phenyl]-4-(2-methyl-thiazol-4-yl)-pyrrolidin-2-one] | 0.387 µM |
| O=C1C[C@@H](c2c[nH]cn2)CN1c1ccc(OCc2cccc(F)c2)cc1 [Example 9, (R)-1-[4-(3-Fluoro-benzyloxy)-phenyl]-4-(1H-imidazol-4-yl)-pyrrolidin-2-one] | 0.187 µM |
| CON(C)C(=O)[C@@H]1CC(=O)N(c2ccc(OCc3cccc(F)c3)cc2)C1 [Example 10, (R)-1-[4-(3-Fluoro-benzyloxy)-phenyl]-5-oxo-pyrrolidine-3-carboxylic acid methoxy-methyl-amide] | 0.392 µM |
| CC(=O)[C@@H]1CC(=O)N(c2ccc(OCc3cccc(F)c3)cc2)C1 [Example 11, (R)-4-Acetyl-1-[4-(3-fluoro-benzyloxy)-phenyl]-pyrrolidin-2-one] | 0.011 µM |
